# From US11466024B2, “Bicylic compound acting as an inhibitor” (CHIA TAI TIANQING PHARMACEUTICAL GROUP CO., LTD., priority 2017, dated 2022)
# Key:
# [1] = biological target: T1, RORγ (Homo sapiens, UniProt P51449); test: In vitro test for inhibitory activity on RORγ: luciferase reporter cells expressing chimeric Gal4-RORγ receptor; type: cell-based; settings: Gal4 hybrid receptor luciferase reporter, HEK293, 24 hours incubation
# T1 sequence (P51449 97-518): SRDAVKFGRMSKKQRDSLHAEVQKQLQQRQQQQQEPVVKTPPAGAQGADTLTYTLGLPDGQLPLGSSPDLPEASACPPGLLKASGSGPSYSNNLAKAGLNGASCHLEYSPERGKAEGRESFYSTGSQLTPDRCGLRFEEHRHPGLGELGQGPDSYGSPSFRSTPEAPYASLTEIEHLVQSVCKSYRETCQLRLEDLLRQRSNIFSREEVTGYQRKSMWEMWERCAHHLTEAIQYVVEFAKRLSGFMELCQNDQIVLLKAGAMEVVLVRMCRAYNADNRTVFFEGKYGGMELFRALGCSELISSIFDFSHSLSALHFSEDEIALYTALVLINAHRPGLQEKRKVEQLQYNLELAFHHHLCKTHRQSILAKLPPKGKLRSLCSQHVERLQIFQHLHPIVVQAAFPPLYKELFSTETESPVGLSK
# Description: Reporter cells: Reporter cells expressing a chimeric RORγ receptor were used in this experiment. The chimeric RORγ receptor was a RORγ receptor formed by replacing the N-terminal DNA-binding domain of the natural RORγ protein with the DNA-binding domain of the yeast Gal4 protein. The luciferase reporter gene was located at the downstream of the Gal4 activating sequence (UAS).
# Step 1: Reporter cells were prepared into a cell suspension using INDIGO's Cell Recovery Medium (CRM, containing 5% fetal bovine serum treated by activated carbon). The cell suspension was dispensed into a white 96-well culture plate in a volume of 100 μl/well.
# Step 2: Eight concentration gradients were set for each test compound, and the test was conducted twice at each concentration. Prior to the experiment, the main stock solution of the test compound was serially diluted with DMSO, so as to formulate solutions with “1000×-concentration” relative to each of the final test concentrations. Subsequently, the compound was further diluted with the cell recovery medium (CRM, containing 5% fetal bovine serum treated by activated carbon), so as to formulate test working solutions with “2×-concentration”. As per a volume of 100 μl/well, the test working solutions were respectively added to the test wells in which the reporter cells were added in advance, so as to obtain the desired final test concentrations. The residual concentrations of DMSO in all test wells were 0.1%. The test plate was incubated in a cell incubator for 24 hours. Conditions of the incubator were set as follows: temperature: 37° C., 5% CO2, humidity: ˜85%.
# Step 3: After 24 hours of incubation, the liquid in the culture plate was discarded, 100 μl of luciferase detection reagent was added to each test well, and then, the fluorescence intensity (Relative Luminescence Units, RLUs) in each well was read.
# In this test, the reference compound ursolic acid was used as an internal standard of a positive compound to verify the inhibitory effect of the test compound on RORγ in reporter cells of a specific batch. The tests for the reference compound and the test compound were performed simultaneously, and the reference compound and the test compound were thus exposed to the same test reagent and environment. The reference compound group containing 0.1% DMSO as solvent was used as an internal standard of a positive compound, so as to determine the effect of the solvent DMSO on the test results and calculate the percentage reduction in RORγ activity.
# The test data was managed and archived by Microsoft Excel, and mean±standard deviation (SD) of RLU, fold of reduction, inhibition rate, coefficient of variation (% CV) and Z factor were calculated. Coefficient of variation (% CV): 100×(SD/Ave. RLU); Fold of reduction for inverse agonist: [Ave. […]
# [2] = biological target: hERG potassium channel (Homo sapiens, UniProt Q12809); test: Inhibition test of hERG potassium channel (QPatch, CHO-hERG cells)
# Description: CHO-hERG cells (from Shanghai Institute of Materia Medica, Chinese Academy of Sciences) were cultured in a 175 cm^2 culture flask. When the cell density reached 60% to 80%, the culture medium was removed, the cells were washed once with 7 mL of PBS, and then 3 mL of Detachin was added for cell detachment. After complete cell detachment, 7 mL of culture medium were added for neutralization, the mixture was then centrifuged, the supernatant was aspirated, and another 5 mL of culture medium was added for re-suspension, so as to ensure that the cell density was 2×10^6/mL to 5×10^6/mL.
# The single-cell giga-seal and the formation of whole-cell mode were both completed automatically by a Q patch instrument. After a whole-cell recording mode was achieved, the cells were clamped at −80 mV, exposed to a front voltage of −50 mV for 50 ms prior to a depolarizing stimulus (5 s, +40 mV), and then repolarized to −50 mV for 5 s, followed by a recovery to −80 mV. This voltage stimulation was applied every 15 s and recorded for 2 minutes, and the extracellular fluid was then administered, followed by a record lasting for 5 minutes. Thereafter, the administration process was started. Starting from the lowest test concentration, the compounds were administered at each test concentration and the process lasted for 2.5 minutes. […] At least 3 cells (n≥3) were tested at each concentration.
# 20 mM stock solution of the compound was diluted with the extracellular fluid, and 5 μL of the 20 mM stock solution of the compound was taken, added to 2495 μL of the extracellular fluid, and diluted by 500 times to 40 μM. Thereafter, the resulting mixture was serially and successively diluted by 3 times in an extracellular fluid containing 0.2% DMSO, so as to obtain a final concentration to be tested.
# The experimental data was analyzed by XLFit software.
# Chain of hERG potassium channel (Q12809 whole entry): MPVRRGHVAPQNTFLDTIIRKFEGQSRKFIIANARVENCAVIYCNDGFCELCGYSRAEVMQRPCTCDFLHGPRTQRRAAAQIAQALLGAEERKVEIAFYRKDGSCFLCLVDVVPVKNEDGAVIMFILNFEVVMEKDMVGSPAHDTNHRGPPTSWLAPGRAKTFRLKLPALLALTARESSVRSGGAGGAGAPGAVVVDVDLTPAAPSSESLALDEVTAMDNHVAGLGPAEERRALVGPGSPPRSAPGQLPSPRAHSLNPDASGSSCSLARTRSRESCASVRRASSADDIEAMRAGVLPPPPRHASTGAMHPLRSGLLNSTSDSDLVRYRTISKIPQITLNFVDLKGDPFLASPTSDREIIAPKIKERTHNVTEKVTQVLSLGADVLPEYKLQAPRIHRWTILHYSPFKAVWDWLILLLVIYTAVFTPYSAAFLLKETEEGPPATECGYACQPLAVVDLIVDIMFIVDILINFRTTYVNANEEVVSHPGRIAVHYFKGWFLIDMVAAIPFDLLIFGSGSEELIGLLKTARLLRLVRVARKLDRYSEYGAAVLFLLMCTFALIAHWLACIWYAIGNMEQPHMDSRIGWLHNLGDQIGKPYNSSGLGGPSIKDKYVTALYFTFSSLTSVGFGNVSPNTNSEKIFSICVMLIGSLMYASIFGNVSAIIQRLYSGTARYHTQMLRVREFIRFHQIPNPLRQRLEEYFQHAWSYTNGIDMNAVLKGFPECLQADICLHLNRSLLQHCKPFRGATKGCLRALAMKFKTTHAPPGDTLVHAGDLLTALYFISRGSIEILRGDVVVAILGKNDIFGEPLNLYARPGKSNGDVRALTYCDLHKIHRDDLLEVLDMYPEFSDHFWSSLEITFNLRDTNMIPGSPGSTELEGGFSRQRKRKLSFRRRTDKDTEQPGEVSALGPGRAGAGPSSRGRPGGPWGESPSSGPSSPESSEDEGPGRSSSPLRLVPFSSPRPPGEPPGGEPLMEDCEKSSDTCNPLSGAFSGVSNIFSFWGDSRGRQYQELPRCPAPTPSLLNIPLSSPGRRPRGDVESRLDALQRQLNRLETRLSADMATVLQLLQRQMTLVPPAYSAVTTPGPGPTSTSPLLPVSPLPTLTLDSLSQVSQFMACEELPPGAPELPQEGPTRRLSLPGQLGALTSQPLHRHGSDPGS
smiles,measurement,setting,value
"CCS(=O)(=O)c1ccc(CNC(=O)c2cc3c(s2)C(C(C)C)N(C[C@H]2CC[C@H](C(F)(F)F)CC2)C3)nc1 (single isomer, unassigned) [Example 1]",EC50,[1]; Specific value of the concentration required for 50% inhibition (EC50) of RORγ,15.8 nM
same,EC50,[1]; Value of the concentration required for 50% Inhibition (EC50) of RORγ,< 100 nM
same,IC50,[2],> 40000 nM
same,"inhibition at 2.5 min, 40 μM",[2]; human,26.3%
